From patent publication EP1873155A1, “Inhibitors of the HIV integrase enzyme” (PFIZER INC., priority 2004, dated 2005)
pEC50: −log10 of the molar value.

system: RF strain of HIV-1; assay: HIV-1 cell protection assay (XTT dye reduction); format: cell-based; conditions: CEM-SS cells infected with HIV-1 RF, six days, XTT formazan; read-out: EC50
Method: Example 61: HIV-1 Cell Protection Assay
The antiviral activities of potential modulator compounds (test compounds) were determined in HIV-1 cell protection assays using the RF strain of HIV-1, CEM-SS cells, and the XTT dye reduction method (Weislow, O.S. et al., J. Natl. Cancer Inst. 81: 577-586 (1989)). Subject cells were infected with HIV-1 RF virus at an moi of 0.025 to 0.819 or mock infected with medium only and added at 2 x 10^4 cells per well into 96 well plates containing half-log dilutions of test compounds. Six days later, 50 µl of XTT solution (1 mg/ml XTT tetrazolium and […] phenazine methosulfate) were added to the wells and the plates were reincubated for four hours. Viability, as determined by the amount of XTT formazan produced, was quantified spectrophotometrically by absorbance at 450 nm.
Data from CPE assays were expressed as the percent of formazan produced in compound-treated cells compared to formazan produced in wells of uninfected, compound-free cells. […] The therapeutic index was calculated by dividing the cytotoxicity (CC50) by the antiviral activity (EC50).

`O=C1c2ncc3c(ccn3Cc3ccc(F)cc3)c2CCCN1O` [Example 3, 3-(4-Fluorobenzyl)-7-hydroxy-7,8,9,1 0-tetrahydropyrrolo[3',2':4,5]pyrido[2,3-c]azepin-6(3H)-one] gave a pEC50 of 7.54.

same assay, conditions: Human immunodeficiency virus 1, CEM-SS, 144 h

`O=C(NCc1ccccn1)c1cn(Cc2ccc(F)cc2)c2cnc3c(=O)n(O)ccc3c12` [Example 29, 3-(4-fluorobenzyl)-7-hydroxy-6-oxo-N-(pyridin-2-ylmethyl)-6,7-dihydro-3H-pyrrolo[2,3-c]-1,7-naphthyridine-1-carboxamide] and `O=C(NCCc1cnccn1)c1cn(Cc2ccc(F)cc2)c2cnc3c(=O)n(O)ccc3c12` [Example 28, 3-(4-fluorobenzyl)-7-hydroxy-6-oxo-N-(2-pyrazin-2-ylethyl)-6,7-dihydro-3H-pyrrolo[2,3-c]-1,7-naphthyridine-1-carboxamide] are within 0.2 log units of each other in pEC50: 7.46 for the first, 7.62 for the second.

`O=C(c1cn(Cc2ccc(F)cc2)c2cnc3c(=O)n(O)ccc3c12)N1CCCC1` [Example 26, 3-(4-fluorobenzyl)-7-hydroxy-1-(pyrrolidin-1-ylcarbonyl)-3,7-dihydro-6H-pyrrolo[2,3-c]-1,7-naphthyridin-6-one] showed a pEC50 of 8.30.

same assay, conditions: Human immunodeficiency virus 1, CEM-SS, 144 h, CEM-SS cells infected with HIV-1 RF, six days, XTT formazan; read-out: EC50

Going from `O=c1c2ncc3c(c(CN4CCN5C[C@H](O)CC5C4)cn3Cc3ccc(F)cc3)c2ccn1O` (stereo partly drawn) [Example 55, 3-(4-fluorobenzyl)-7-hydroxy-1-{[(7R)-7-hydroxyhexahydropyrrolo[1,2-a]pyrazin-2(1 H)-yl]methyl}-3,7-dihydro-6H-pyrrolo[2,3-c]-1,7-naphthyridin-6-one] to `O=c1c2ncc3c(c(CN4CCOCC4)cn3Cc3ccc(F)cc3)c2ccn1O` [Example 57, 3-(4-fluorobenzyl)-7-hydroxy-1-(morpholin-4-ylmethyl)-3,7-dihydro-6H-pyrrolo[2,3-c]-1,7-naphthyridin-6-one], the pEC50 rises from 7.16 to 9.49 (2.33 log units).

Compared with `CC(C)(C)OC(=O)N1CCC(COCc2cn(Cc3ccc(F)cc3)c3cnc4c(=O)n(O)ccc4c23)CC1` [Example 32, tert-butyl 4-({[3-(4-fluorobenzyl)-7-hydroxy-6-oxo-6,7-dihydro-3H-pyrrolo[2,3-c]-1,7-naphthyridin-1-yl]methoxy)methyl)pip eridine-1-carboxylate], `O=c1c2ncc3c(c(COCCOC4CCCCC4)cn3Cc3ccc(F)cc3)c2ccn1O` [Example 34, 1-{[2-(cyclohexyloxy)ethoxy]methyl}-3-(4-fluorobenzyl)-7-hydroxy-3,7-dihydro-6H-pyrrolo[2,3-c]-1,7-naphthyridin-6-one] is 0.48 log units higher in pEC50: 8.22 for the first, 8.70 for the second. The second is the more potent here.

First: O=c1c2ncc3c(c(CN4CCc5ccccc5C4)cn3Cc3ccc(F)cc3)c2ccn1O [Example 10, 1-(3,4-dihydroisoquinolin-2(1H)-ylmethyl)-3-(4-fluorobenzyl)-7-hydroxy-3,7-dihydro-6H-pyrrolo[2,3-c]-1,7-naphthyridin-6-one]
Second: O=C1CCN(Cc2cn(Cc3ccc(F)cc3)c3cnc4c(=O)n(O)ccc4c23)CCN1 [Example 19, 3-(4-fluorobenzyl)-7-hydroxy-1-[(5-oxo-1,4-diazepan-1-yl)methyl]-3,7-dihydro-6H-pyrrolo[2,3-c]-1,7-naphthyridin-6-one]
The pEC50 of the first is 1.57 log units higher: 9.39 for the first, 7.82 for the second. The first is the more potent here.

Compared with `O=c1c2ncc3c(c(S(=O)(=O)NCc4ccc(F)cc4)cn3Cc3ccc(F)cc3)c2ccn1O` [Example 25, N,3-bis(4-fluorobenzyl)-7-hydroxy-6-oxo-6,7-dihydro-3H-pyrrolo[2,3-c]-1,7-naphthyridine-1-sulfonamide], `O=c1c2ncc3c(c(CNCc4ccc(C(F)(F)F)cc4)cn3Cc3ccc(F)cc3)c2ccn1O` [Example 43, 3-(4-fluorobenzyl)-7-hydroxy-1-({[4-(trifluoromethyl)benzyl]amino)methyl)-3,7-dihydro-6H-pyrrolo[2,3-c]-1,7-naphthyridin-6-one] is 2.30 log units higher in pEC50: 6.80 for the first, 9.10 for the second.

First: O=c1c2ncc3c(c(CN4CCCCC4CO)cn3Cc3ccc(F)cc3)c2ccn1O (stereo not drawn) [Example 49, 3-(4-fluorobenzyl)-7-hydroxy-1-{[2-(hydroxymethyl)piperidin-1-yl]methyl}-3,7-dihydro-6H-pyrrolo[2,3-c]-1,7-naphthyridin-6-one]
Second: NC(=O)[C@H]1CCCN1Cc1cn(Cc2ccc(F)cc2)c2cnc3c(=O)n(O)ccc3c12 [Example 12, 1-{[3-(4-fluorobenzyl)-7-hydroxy-6-oxo-6,7-dihydro-3H-pyrrolo[2,3-c]-1,7-naphthyridin-1-yl]methyl}-D-prolinamide]
The pEC50 of the first is 0.55 log units lower: 7.85 for the first, 8.40 for the second. The second is the more potent here.

Going from `O=c1c2ncc3c(c(CN4CCN(CCN5CCOCC5)CC4)cn3Cc3ccc(F)cc3)c2ccn1O` [Example 58, 3-(4-fluorobenzyl)-7-hydroxy-1-{[4-(2-morpholin-4-ylethyl)piperazin-1-yl]methyl}-3,7-dihydro-6H-pyrrolo[2,3-c]-1,7-naphthyridin-6-one] to `CCN1CCN(Cc2cn(Cc3ccc(F)cc3)c3cnc4c(=O)n(O)ccc4c23)CC1` [Example 8, 1-[(4-ethylpiperazin-1-yl)methyl]-3-(4-fluorobenzyl)-7-hydroxy-3,7-dihydro-6H-pyrrolo[2,3-c]-1,7-naphthyridin-6-one], the pEC50 rises from 7.49 to 7.96 (0.47 log units).

First: Cc1cnc(CNCc2cn(Cc3ccc(F)cc3)c3cnc4c(=O)n(O)ccc4c23)cn1 [Example 42, 3-(4-fluorobenzyl)-7-hydroxy-1-({[(5-methylpyrazin-2-yl)methyl]amino}methyl)-3,7-dihydro-6H-pyrrolo[2,3-c]-1,7-naphthyridin-6-one]
Second: CN(C)Cc1cn(Cc2ccc(F)cc2)c2cnc3c(=O)n(O)ccc3c12 [Example 4, 1-[(dimethylamino)methyl]-3-(4-fluorobenzyl)-7-hydroxy-3,7-dihydro-6H-pyrrolo[2,3-c]-1,7-naphthyridin-6-one]
The pEC50 of the first is 0.37 log units higher: 8.52 for the first, 8.15 for the second. The first is the more potent here.

Compared with `CN(C)S(=O)(=O)c1cn(Cc2ccc(F)cc2)c2cnc3c(=O)n(O)ccc3c12` [Example 23, 3-(4-fluorobenzyl)-7-hydroxy-N,N-dimethyl-6-oxo-6,7-dihydro-3H-pyrrolo[2,3-c]-1,7-naphthyridine-1-sulfonamide], `O=C1CN(S(=O)(=O)c2cn(Cc3ccc(F)cc3)c3cnc4c(=O)n(O)ccc4c23)CCN1` [Example 22, 3-(4-fluorobenzyl)-7-hydroxy-1-[(3-oxopiperazin-1-yl)sulfonyl]-3,7-dihydro-6H-pyrrolo[2,3-c]-1,7-naphthyridin-6-one] is 1.05 log units lower in pEC50: 8.40 for the first, 7.35 for the second.

Going from `CCN(Cc1cn(Cc2ccc(F)cc2)c2cnc3c(=O)n(O)ccc3c12)C1CCCCC1` [Example 14, 1-{[cyclohexyl(ethyl)amino]methyl}-3-(4-fluorobenzyl)-7-hydroxy-3,7-dihydro-6H-pyrrolo[2,3-c]-1,7-naphthyridin-6-one] to `O=c1c2ncc3c(c(COC4CCOCC4)cn3Cc3ccc(F)cc3)c2ccn1O` [Example 37, 3-(4-fluorobenzyl)-7-hydroxy-1-[(tetrahydro-2H-pyran-4-yloxy)methyl]-3,7-dihydro-6H-pyrrolo[2,3-c]-1,7-naphthyridin-6-one], the pEC50 rises from 8.10 to 9.00 (0.90 log units).

Going from `CCCN(CCO)Cc1cn(Cc2ccc(F)cc2)c2cnc3c(=O)n(O)ccc3c12` [Example 48, 3-(4-fluorobenzyl)-7-hydroxy-1-{[(2-hydroxyethyl)(propyl)amino]methyl}-3,7-dihydro-6H-pyrrolo[2,3-c]-1,7-naphthyridin-6-one] to `CCN(CC)CCN(CC)Cc1cn(Cc2ccc(F)cc2)c2cnc3c(=O)n(O)ccc3c12` [Example 50, 1-{[[2-(diethylamino)ethyl](ethyl)amino]methyl}-3-(4-fluorobenzyl)-7-hydroxy-3,7-dihydro-6H-pyrrolo[2,3-c]-1,7-naphthyridin-6-one], the pEC50 falls from 8.92 to 8.07 (0.85 log units).

Going from `NC(=O)[C@@H]1CCCN1Cc1cn(Cc2ccc(F)cc2)c2cnc3c(=O)n(O)ccc3c12` [Example 5, 1-{[3-(4-fluorobenzyl)-7-hydroxy-6-oxo-6,7-dihydro-3H-pyrrolo[2,3-c]-1,7-naphthyridin-1-yl]methyl}-L-prolinamide] to `NC(=O)[C@@H]1CCCN1S(=O)(=O)c1cn(Cc2ccc(F)cc2)c2cnc3c(=O)n(O)ccc3c12` [Example 20, 1-{[3-(4-fluorobenzyl)-7-hydroxy-6-oxo-6,7-dihydro-3H-pyrrolo[2,3-c]-1,7-naphthyridin-1-yl]sulfonyl}-L-prolinamide], the pEC50 falls from 7.42 to 6.41 (1.01 log units).

Going from `CCS(=O)(=O)N1CCN(Cc2cn(Cc3ccc(F)cc3)c3cnc4c(=O)n(O)ccc4c23)CC1` [Example 52, 1-{[4-(ethylsulfonyl)piperazin-1-yl]methyl}-3-(4-fluorobenzyl)-7-hydroxy-3,7-dihydro-6H-pyrrolo[2,3-c]-1,7-naphthyridin-6-one] to `O=C1NC[C@@H]2CCN(Cc3cn(Cc4ccc(F)cc4)c4cnc5c(=O)n(O)ccc5c34)C[C@H]12` [Example 56, 3-(4-fluorobenzyl)-7-hydroxy-1-{[(3aR,7aR)-3-oxooctahydro-5H-pyrrolo[3,4-c]pyridin-5-yl]methyl}-3,7-dihydro-6H-pyrrolo[2,3-c]-1,7-naphthyridin-6-one], the pEC50 falls from 8.80 to 7.85 (0.95 log units). The first is the more potent here.

Compared with `CN(Cc1ccccc1)Cc1cn(Cc2ccc(F)cc2)c2cnc3c(=O)n(O)ccc3c12` [Example 54, 1-{[benzyl(methyl)amino]methyl}-3-(4-fluorobenzyl)-7-hydroxy-3,7-dihydro-6H-pyrrolo[2,3-c]-1,7-naphthyridin-6-one], `O=c1c2ncc3c(c(COCCc4ccccn4)cn3Cc3ccc(F)cc3)c2ccn1O` [Example 33, 3-(4-fluorobenzyl)-7-hydroxy-1-[(2-pyridin-2-ylethoxy)methyl]-3,7-dihydro-6H-pyrrolo[2,3-c]-1,7-naphthyridin-6-one] is 0.86 log units lower in pEC50: 9.38 for the first, 8.52 for the second. The first is the more potent here.
